In US9499493B2, “2,4-pyrimidinediamine compounds and their uses” (Rigel Pharmaceuticals, Inc., priority 2002, dated 2016) one finds IC50 data, which are given here for 31 molecules.

In test [1] the test system is cultured human mast cells (CHMC). The test is described as follows: CHMC low cell density IgE activation: tryptase assay. The following applies: anti-IgE. The test is classed as cell-based. Summed up: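 Degranulation is read as supernatant tryptase activity, using tryptase substrate incubated 30 min at room temperature. Before this, CHMC at low density (1000-1500 cells/well) rest 1 hr at 37° C and are triggered with anti-IgE for 30 min at 37° C.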

Test [2] has the same test system. The test is described as follows: CHMC low cell density ionomycin activation: tryptase assay. The test is classed as cell-based.

Each structure is given as a SMILES string.

In general, IC50 refers to the concentration that inhibits the measured activity by half. Low values mean greater potency, high ones weaker potency. For `Oc1cccc(Nc2nc(Nc3ccc(OCC4=NCCCN4)cc3)ncc2F)c1` [R945169, 5-Fluoro-N4-(3-hydroxyphenyl)-N2-[4-(1,4,5,6-tetrahydro-2-pyrimidyl)methyleneoxyphenyl]-2,4-pyrimidinediamine], the IC50 was 10 µM in test [1] and > 10 µM in test [2].

`CNC(=O)COc1ccc(Nc2ncc(F)c(Nc3cccc(O)c3)n2)cc1` [R945170, 5-Fluoro-N4-(3-hydroxyphenyl)-N2-[4-(N-methylamino)carbonylmethyleneoxyphenyl]-2,4-pyrimidinediamine]: the values for the concentration for half-maximal inhibition (IC50) in test [1] and in test [2] were 0.661 µM and > 10 µM, respectively.

Turning to `NC(=O)COc1ccc(Nc2nc(Nc3ccc4c(c3)OCCO4)ncc2F)cc1` [R945171, N4-(4-Aminocarbonylmethyleneoxyphenyl)-N2-(3,4-ethylenedioxyphenyl)-5-fluoro-2,4-pyrimidinediamine], the IC50 in test [1] was 1.33 µM; in test [2] it was > 10 µM.

Turning to `N#CCOc1ccc(Nc2nc(Nc3ccc4c(c3)OCCO4)ncc2F)cc1` [R945172, N4-(4-Cyanomethyleneoxyphenyl)-N2-(3,4-ethylenedioxyphenyl)-5-fluoro-2,4-pyrimidinediamine], the results for the half-inhibitory concentration (IC50) in test [1] and in test [2] were 1.18 µM and > 10 µM, respectively.

For `CNC(=O)COc1ccc(Nc2nc(Nc3ccc4c(c3)OCCO4)ncc2F)cc1` [R945173, N2-(3,4-Ethylenedioxyphenyl)-5-fluoro-N4-(4-methylaminocarbonylmethyleneoxyphenyl)-2,4-pyrimidinediamine], the values for the IC50 in test [1] and in test [2] were 1.42 µM and > 10 µM, respectively.

`CON=C(N)COc1ccc(Nc2nc(Nc3ccc4c(c3)OCCO4)ncc2F)cc1` [R945175, N2-(3,4-Ethylenedioxyphenyl)-5-fluoro-N4-[4-methoxyimino(amino)ethyleneoxyphenyl]-2,4-pyrimidinediamine]: the IC50 in test [1] was 1.65 µM; in test [2] it was > 10 µM.

For `O=C1CN=C2COc3ccc(Nc4nc(Nc5cccc(O)c5)ncc4F)cc3N12` [R945236, N4-[2,4-Dihydro-1-oxo-4H-imidazo[2,1-c][1,4]benzoxazin-8-yl]-5-fluoro-N2-(3-hydroxyphenyl)-2,4-pyrimidinediamine], the IC50 was 0.562 µM in test [1] and > 10 µM in test [2].

For `CNC(=O)COc1cccc(Nc2ncc(F)c(Nc3cnc4c(c3)OCC(=O)N4)n2)c1` [R945242, 5-Fluoro-N2-(3-methylaminocarbonylmethyleneoxyphenyl)-N4-[2H-pyrido[3,2-b]-1,4-oxazin-3(4H)-one-7-yl]-2,4-pyrimidinediamine], the IC50 in test [1] is 0.247 µM; in test [2], > 10 µM.

Regarding `CS(=O)(=O)Nc1ccc(Nc2ncc(F)c(Nc3ccc(NS(C)(=O)=O)cc3)n2)cc1` [R950083, N2,N4-Bis[(4-methylsulfonylamino)phenyl]-5-fluoro-2,4-pyrimidinediamine], the IC50 in test [1] and in test [2] was > 10 µM each time.

Turning to `CS(=O)(=O)Nc1cccc(Nc2ncc(F)c(Nc3cccc(NS(C)(=O)=O)c3)n2)c1` [R950100], the figures for the IC50 in test [1] and in test [2] were 0.71 µM and > 10 µM, respectively.

For `Nc1ccc(Nc2ncc(F)c(Nc3ccc(N)cc3)n2)cc1` [R950122, N2,N4-Bis(4-aminophenyl)-5-fluoro-2,4-pyrimidinediamine], the half-maximal inhibitory concentration (IC50) in test [1] was 3.02 µM; in test [2], > 10 µM.

As for `Nc1cccc(Nc2nc(Nc3cccc(Nc4ncc(F)c(Nc5cccc(N)c5)n4)c3)ncc2F)c1` [R950137, N4-(3-Aminophenyl)-N2-[[N3-[N4-(3-aminophenyl)]-5-fluoro-2,4-pyrimidinediamine]aminophenyl]-5-fluoro-2,4-pyrimidinediamine], the IC50 was 2.23 µM in test [1] and > 10 µM in test [2].

Take `O=[N+]([O-])c1ccc(NCCO)c(Nc2ncc(F)c(Nc3cc([N+](=O)[O-])ccc3NCCO)n2)c1` [R950150, N2,N4-Bis(2-hydroxyethyleneamino-5-nitrophenyl)-5-fluoro-2,4-pyrimidinediamine]: the concentration for half-maximal inhibition (IC50) in test [1] and in test [2] was > 10 µM each time.

Turning to `O=C(NCCO)c1cc2cc(Nc3ncc(F)c(Nc4ccc5oc(C(=O)NCCO)cc5c4)n3)ccc2o1` [R950167, N2,N4-Bis[2-(2-hydroxyethyleneamoinocarbonyl)-benzofurane-5-yl]-5-fluoro-2,4-pyrimidinediamine], the half-inhibitory concentration (IC50) in test [1] and in test [2] was > 10 µM throughout.

Turning to `NCCNC(=O)c1cc2cc(Nc3ncc(F)c(Nc4ccc5oc(C(=O)NCCN)cc5c4)n3)ccc2o1` [R950168, N2,N4-Bis[2-(2-aminoethyleneamoinocarbonyl)-benzofurane-5-yl]-5-fluoro-2,4-pyrimidinediamine], the half-inhibitory concentration (IC50) in test [1] was 6.5 µM; in test [2] it was 8.65 µM.

On to `O=C(NCCNCc1ccccc1)c1cc2cc(Nc3ncc(F)c(Nc4ccc5oc(C(=O)NCCNCc6ccccc6)cc5c4)n3)ccc2o1` [R950169, N2,N4-Bis[2-(2-(N-benzylamino)ethyleneamoinocarbonyl)-benzofurane-5-yl]-5-fluoro-2,4-pyrimidinediamine], for which the half-inhibitory concentration (IC50) is 1.27 µM in test [1] and 9.52 µM in test [2].

For the molecule `CNCCNC(=O)c1cc2cc(Nc3ncc(F)c(Nc4ccc5oc(C(=O)NCCNC)cc5c4)n3)ccc2o1` [R950170, N2,N4-Bis[2-[2-(methylamino)ethyleneaminocarbonyl]-benzofurane-5-yl]-5-fluoro-2,4-pyrimidinediamine], the IC50 in test [1] and in test [2] was > 10 µM each time.

On to `CC(CO)Nc1cccc(Nc2ncc(F)c(Nc3cccc(NC(C)CO)c3)n2)c1` (centres unmarked) [R950171, N2,N4-Bis[3-N-(2-hydroxy-1-methylethyl)aminophenyl]-5-fluoro-2,4-pyrimidinediamine], for which the IC50 in test [1] is 0.585 µM; in test [2], > 10 µM.

As for `O=C(c1cc2cc(Nc3ncc(F)c(Nc4ccc5oc(C(=O)N6CCOCC6)cc5c4)n3)ccc2o1)N1CCOCC1` [R950172, N2,N4-Bis[2-(N-morpholinocarbonyl)benzofurane-5-yl]-5-fluoro-2,4-pyrimidinediamine], the results for the IC50 in test [1] and in test [2] were 0.983 µM and > 10 µM, respectively.

For the molecule `O=C(NCCN1CCOCC1)c1cc2cc(Nc3ncc(F)c(Nc4ccc5oc(C(=O)NCCN6CCOCC6)cc5c4)n3)ccc2o1` [R950173, N2,N4-Bis[2-(2-N-morpholinoethyleneamoinocarbonyl)-benzofurane-5-yl]-5-fluoro-2,4-pyrimidinediamine], the IC50 in test [1] was 2.37 µM; in test [2] it was > 10 µM.

Take `Fc1cnc(Nc2cccc(NCCOCc3ccccc3)c2)nc1Nc1cccc(NCCOCc2ccccc2)c1` [R950174, N2,N4-Bis[3-(N-benzyloxyethyleneamino)phenyl]-5-fluoro-2,4-pyrimidinediamine]: the IC50 was 4.62 µM in test [1] and > 10 µM in test [2].

Consider `Nc1cccc(Nc2ncc(F)c(Nc3cccc(NCCOCc4ccccc4)c3)n2)c1` [R950175, N2-(3-Aminophenyl)-N4-[3-(N-benzyloxyethyleneamino)phenyl]-5-fluoro-2,4-pyrimidinediamine], for which the IC50 in test [1] is 1.69 µM; in test [2] it was > 10 µM.

In the case of `Nc1cccc(Nc2nc(Nc3cccc(NCCOCc4ccccc4)c3)ncc2F)c1` [R950176, N4-(3-Aminophenyl)-N2-[3-(N-benzyloxyethyleneamino)phenyl]-5-fluoro-2,4-pyrimidinediamine], the concentration for half-maximal inhibition (IC50) is 1.34 µM in test [1] and > 10 µM in test [2].

On to `CCOC(=O)COc1cccc(Nc2ncc(F)c(Nc3cc(Cl)c(O)c(Cl)c3)n2)c1` [R950185, N4-(3,5-Dichloro-4-hydroxyphenyl)-N2-(3-ethoxycarbonylmethyleneoxyphenyl)-5-fluoro-2,4-pyrimidinediamine], for which the figures for the IC50 in test [1] and in test [2] were 1.03 µM and 8.81 µM, respectively.

Regarding `O=C(COc1cccc(Nc2ncc(F)c(Nc3cc(Cl)c(O)c(Cl)c3)n2)c1)N1CCOCC1` [R950187, N4-(3,5-Dichloro-4-hydroxyphenyl)-5-fluoro-N2-[3-(N-morpholino)carbonylmethyleneoxyphenyl]-2,4-pyrimidinediamine], the figures for the concentration for half-maximal inhibition (IC50) in test [1] and in test [2] were 0.724 µM and > 10 µM, respectively.

As to `O=C(COc1cccc(Nc2ncc(F)c(Nc3cc(Cl)c(O)c(Cl)c3)n2)c1)N1CCNCC1` [R950188, N4-(3,5-Dichloro-4-hydroxyphenyl)-5-fluoro-N2-[3-(N-piperazino)carbonylmethyleneoxyphenyl]-2,4-pyrimidinediamine], the IC50 in test [1] is 2.33 µM; in test [2], > 10 µM.

As for `CNc1ncc(F)c(Nc2ccc3c(c2)OCCO3)n1` [R950189], the IC50 in test [1] (Homo sapiens, Mast cell) was 10 µM; in test [2] (Homo sapiens, Mast cell), > 10 µM.

As to `NC(=O)CNc1cccc(Nc2ncc(F)c(Nc3ccc4c(c3)OCCO4)n2)c1` [R950192, N2-[3-(N-Amino)carbonylmethyleneaminophenyl]-N4-(3,4-ethylenedioxyphenyl)-5-fluoro-2,4-pyrimidinediamine], the IC50 in test [1] is 0.244 µM; in test [2] it was > 10 µM.

As for `O=C(CNc1cccc(Nc2ncc(F)c(Nc3ccc4c(c3)OCCO4)n2)c1)N1CCOCC1` [R950193, N4-(3,4-Ethylenedioxyphenyl)-5-fluoro-N2-[3-(N-morpholino)carbonylmethyleneaminophenyl]-2,4-pyrimidinediamine], the half-maximal inhibitory concentration (IC50) in test [1] is 0.61 µM; in test [2], > 10 µM.

Consider `CN1CCN(C(=O)CNc2cccc(Nc3ncc(F)c(Nc4ccc5c(c4)OCCO5)n3)c2)CC1` [R950194, N4-(3,4-Ethylenedioxyphenyl)-5-fluoro-N2-[3-(N—(N-methyl)-piperazino)carbonylmethyleneaminophenyl]-2,4-pyrimidinediamine], for which the half-inhibitory concentration (IC50) in test [1] was 2.04 µM; in test [2], > 10 µM.

Regarding `CNCCNC(=O)CNc1cccc(Nc2ncc(F)c(Nc3ccc4c(c3)OCCO4)n2)c1` [R950196, N4-(3,4-Ethylenedioxyphenyl)-5-fluoro-N2-[3-(N-methylamino)ethyleneaminocarbonylmethyleneaminophenyl]-2,4-pyrimidinediamine], the IC50 is 2.2 µM in test [1] and > 10 µM in test [2].
